B1: AphAEc-His6 (periplasmic acid phosphatase AphA of Escherichia coli, signal peptide removed, C-terminal His6 tag) (enzyme, UniProt P0AE22 26-237, looked up)
chain: SSPSPLNPGTNVARLAEQAPIHWVSVAQIENSLAGRPPMAVGFDIDDTVLFSSPGFWRGKKTFSPESEDYLKNPVFWEKMNNGWDEFSIPKEVARQLIDMHVRRGDAIFFVTGRSPTKTETVSKTLADNFHIPATNMNPVIFAGDKPGQNTKSQWLQDKNIRIFYGDSDNDITAARDVGARGIRILRASNSTYKPLPQAGAFGEEVIVNSEY
notes: AphA, nonspecific periplasmic acid phosphatase of Escherichia coli K-12; signal peptide removed from the construct; pET28a-aphAEc-his; also called AphA-His6; Ct His6-tagged AphAEc; source: E. coli, purified (Ni-NTA, size-exclusion chromatography on Superdex 200 Increase); not shown: His6, C-terminal, kept
B2: His6-AphAEc (periplasmic acid phosphatase AphA of Escherichia coli, signal peptide removed, N-terminal His6 tag) (enzyme, UniProt P0AE22 26-237, looked up)
chain: B1 chain
notes: AphA, nonspecific periplasmic acid phosphatase of Escherichia coli K-12; signal peptide removed from the construct; pET28a-his-aphAEc; also called Nt His6-tagged AphAEc; source: E. coli, purified (Ni-NTA, size-exclusion chromatography on Superdex 200 Increase); not shown: His6, N-terminal, kept
B3: tagless AphAEc (periplasmic acid phosphatase AphA of Escherichia coli, His6-SUMO tag cleaved off by Ulp1) (enzyme)
chain: SPSPLNPGTNVARLAEQAPIHWVSVAQIENSLAGRPPMAVGFDIDDTVLFSSPGFWRGKKTFSPESEDYLKNPVFWEKMNNGWDEFSIPKEVARQLIDMHVRRGDAIFFVTGRSPTKTETVSKTLADNFHIPATNMNPVIFAGDKPGQNTKSQWLQDKNIRIFYGDSDNDITAARDVGARGIRILRASNSTYKPLPQAGAFGEEVIVNSEY
notes: AphA, nonspecific periplasmic acid phosphatase of Escherichia coli K-12; protein of around 25 kDa on SDS-PAGE; pET24d-his-sumo-aphAEc; linker between SUMO and aphA removed by mutagenesis; probably the mature protein as in m1 and m2; also called cleaved His6-SUMO-AphAEc; source: E. coli, purified; His6-SUMO tag cleaved off with His6-Ulp1, size-exclusion chromatography; not shown: His6-SUMO, …

Assays:
His6-HelHi = target: T1, His6-HelHi (Haemophilus influenzae, UniProt P26093); assay: pNPP phosphatase assay, A405; assay type: biochemical; conditions: 1 mM pNPP, 15 nM enzyme, pH 8 and 5.6
T1 construct: gene hel; N-terminal His6 kept, pET28a-his-helHi, expressed in E. coli

His6-AphAEc = target: T2, His6-AphAEc (Escherichia coli, UniProt P0AE22); assay: DRaCALA competition against […]-cAMP; assay type: binding; conditions: 5 mM AMP (figure legend: 4 mM); 2 nM 32P-cAMP; 40 mM Tris pH 7.5, 100 mM NaCl, 10 mM MgCl2
T2 construct: gene aphA; signal peptide removed, N-terminal His6 kept, pET28a, expressed in E. coli; tetramer by SEC

AphAEc-His6 = target: T3, AphAEc-His6 (Escherichia coli, UniProt P0AE22); assay: DRaCALA competition against […]-cAMP; assay type: binding; conditions: 5 mM AMP (figure legend: 4 mM); 2 nM 32P-cAMP; 40 mM Tris pH 7.5, 100 mM NaCl, 10 mM MgCl2
T3 construct: gene aphA; signal peptide removed, C-terminal His6 kept, pET28a, expressed in E. coli; non-natural dimer by SEC

[1] = target: the molecule itself; assay: SEC; Superdex 200 Increase 10/300 GL on an AKTA system; size estimated against standard proteins

T1 sequence (P26093 21-274): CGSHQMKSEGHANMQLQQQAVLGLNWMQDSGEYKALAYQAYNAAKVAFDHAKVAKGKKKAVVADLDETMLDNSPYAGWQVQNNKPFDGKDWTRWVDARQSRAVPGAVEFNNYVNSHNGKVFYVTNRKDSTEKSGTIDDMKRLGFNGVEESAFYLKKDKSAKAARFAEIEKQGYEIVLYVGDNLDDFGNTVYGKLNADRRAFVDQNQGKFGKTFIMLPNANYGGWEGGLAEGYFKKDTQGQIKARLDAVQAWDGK

Molecule	stoichiometry N [1]	further results
O=[N+]([O-])c1ccc(OP(=O)(O)O)cc1 [p-Nitrophenyl Phosphate]		pNPP phosphatase assay, A405 (His6-HelHi): acid phosphatase assay of the His6-HelHi protein
Nc1ncnc2c1ncn2[C@@H]1O[C@H](COP(=O)(O)O)[C@@H](O)[C@H]1O [AMP]		DRaCALA competition against 32P-cAMP (His6-AphAEc): the binding fractions dropped to nearly zero for AMP; DRaCALA competition against 32P-cAMP (AphAEc-His6): the binding fractions dropped to nearly zero for AMP
B1	2	
B2	4	
B3	4	

Source: PMC10694654 (The Journal of Biological Chemistry, 2023)
